#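 1) Cells in 96-well plates. 2) Compound, 48 h, 5 concentrations. 3) Linear interpolation between surrounding doses. 4) Unreached endpoint = highest concentration. Abbreviation: GI50, concentration required for 50% inhibition of growth. TGI denotes the concentration required for complete inhibition of growth.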
# What was measured:
# Experiment in all cases: inhibition of tumour cell growth, NCI panel, 48 h
# RXF 393 renal = test system: RXF 393 renal
# CAKI-1 renal = test system: CAKI-1 renal
# SNB-19 CNS = test system: SNB-19 CNS
# PC-3 prostate = test system: PC-3 prostate
# BT-549 breast = test system: BT-549 breast
# UO-31 renal = test system: UO-31 renal
# M14 melanoma = test system: M14 melanoma
# SF-268 CNS = test system: SF-268 CNS
# MOLT-4 leukemia = test system: MOLT-4 leukemia
# SNB-75 CNS = test system: SNB-75 CNS
# NCI-H23 lung = test system: NCI-H23 lung
# MALME-3M melanoma = test system: MALME-3M melanoma
# UACC-62 melanoma = test system: UACC-62 melanoma
# HL-60(TB) leukemia = test system: HL-60(TB) leukemia
# HCT-15 colon = test system: HCT-15 colon
# UACC-257 melanoma = test system: UACC-257 melanoma
# ACHN renal = test system: ACHN renal
# HT29 colon = test system: HT29 colon
# A549 NSCLC = test system: A549 NSCLC
# T-47D breast = test system: T-47D breast
# SK-MEL-28 melanoma = test system: SK-MEL-28 melanoma
# SW-620 colon = test system: SW-620 colon
# HOP-92 NSCLC = test system: HOP-92 NSCLC
# 786-0 renal = test system: 786-0 renal
# DU-145 prostate = test system: DU-145 prostate
# OVCAR-4 ovarian = test system: OVCAR-4 ovarian
# SF-539 CNS = test system: SF-539 CNS
# IGROV1 ovarian = test system: IGROV1 ovarian
# SK-MEL-5 melanoma = test system: SK-MEL-5 melanoma
# MDA-MB-435 = test system: MDA-MB-435
# SK-OV-3 ovarian = test system: SK-OV-3 ovarian
# NCI-H226 lung = test system: NCI-H226 lung
# SK-MEL-2 melanoma = test system: SK-MEL-2 melanoma
# A498 renal = test system: A498 renal
# SR leukemia = test system: SR leukemia
# SN12C renal = test system: SN12C renal
# HOP-62 NSCLC = test system: HOP-62 NSCLC
# SF-295 CNS = test system: SF-295 CNS
# HCT-116 colon = test system: HCT-116 colon
# KM12 colon = test system: KM12 colon
# TK-10 renal = test system: TK-10 renal
# HS 578T breast = test system: HS 578T breast
# NCI-H522 lung = test system: NCI-H522 lung
# MCF7 breast = test system: MCF7 breast
# OVCAR-3 ovarian = test system: OVCAR-3 ovarian
# K-562 leukemia = test system: K-562 leukemia
# CCRF-CEM leukemia = test system: CCRF-CEM leukemia
# OVCAR-5 ovarian = test system: OVCAR-5 ovarian
# U251 CNS = test system: U251 CNS
# HCC-2998 colon = test system: HCC-2998 colon
# NCI/ADR-RES ovarian = test system: NCI/ADR-RES ovarian
# OVCAR-8 ovarian = test system: OVCAR-8 ovarian
# RPMI-8226 leukemia = test system: RPMI-8226 leukemia
# LOX IMVI melanoma = test system: LOX IMVI melanoma
# COLO 205 colon = test system: COLO 205 colon
# MDA-MB-231 breast = test system: MDA-MB-231 breast
# NCI-H460 lung = test system: NCI-H460 lung
# EKVX NSCLC = test system: EKVX NSCLC
smiles,measurement,setting,value
c1ccc(-c2c(-c3ccccc3)[n+](Cc3ccc4ccccc4c3)c(-c3cccc4ccccc34)n2Cc2ccc3ccccc3c2)cc1,GI50,RXF 393 renal,220 nM
same,TGI,RXF 393 renal,949 nM
same,GI50,CAKI-1 renal,265 nM
same,TGI,CAKI-1 renal,1010 nM
same,GI50,SNB-19 CNS,108 nM
same,TGI,SNB-19 CNS,1420 nM
same,GI50,PC-3 prostate,64.1 nM
same,TGI,PC-3 prostate,1210 nM
same,GI50,BT-549 breast,122 nM
same,TGI,BT-549 breast,1180 nM
same,GI50,UO-31 renal,306 nM
same,TGI,UO-31 renal,1280 nM
same,GI50,M14 melanoma,187 nM
same,TGI,M14 melanoma,1440 nM
same,GI50,SF-268 CNS,220 nM
same,TGI,SF-268 CNS,1760 nM
same,GI50,MOLT-4 leukemia,233 nM
same,TGI,MOLT-4 leukemia,1270 nM
same,GI50,SNB-75 CNS,192 nM
same,TGI,SNB-75 CNS,955 nM
same,GI50,NCI-H23 lung,146 nM
same,TGI,NCI-H23 lung,748 nM
same,GI50,MALME-3M melanoma,91 nM
same,TGI,MALME-3M melanoma,1000 nM
same,GI50,UACC-62 melanoma,286 nM
same,TGI,UACC-62 melanoma,1400 nM
same,GI50,HL-60(TB) leukemia,34.2 nM
same,TGI,HL-60(TB) leukemia,228 nM
same,GI50,HCT-15 colon,327 nM
same,TGI,HCT-15 colon,1210 nM
same,GI50,UACC-257 melanoma,221 nM
same,TGI,UACC-257 melanoma,958 nM
same,GI50,ACHN renal,249 nM
same,TGI,ACHN renal,743 nM
same,GI50,HT29 colon,46.6 nM
same,TGI,HT29 colon,1100 nM
same,GI50,A549 NSCLC,166 nM
same,TGI,A549 NSCLC,1570 nM
same,GI50,T-47D breast,64.8 nM
same,TGI,T-47D breast,1270 nM
same,GI50,SK-MEL-28 melanoma,191 nM
same,TGI,SK-MEL-28 melanoma,1880 nM
same,GI50,SW-620 colon,151 nM
same,TGI,SW-620 colon,1330 nM
same,GI50,HOP-92 NSCLC,79.1 nM
same,TGI,HOP-92 NSCLC,479 nM
same,GI50,786-0 renal,231 nM
same,TGI,786-0 renal,1630 nM
same,GI50,DU-145 prostate,262 nM
same,TGI,DU-145 prostate,1440 nM
same,GI50,OVCAR-4 ovarian,187 nM
same,TGI,OVCAR-4 ovarian,1120 nM
same,GI50,SF-539 CNS,371 nM
same,TGI,SF-539 CNS,1500 nM
same,GI50,IGROV1 ovarian,147 nM
same,TGI,IGROV1 ovarian,1390 nM
same,GI50,SK-MEL-5 melanoma,155 nM
same,TGI,SK-MEL-5 melanoma,296 nM
same,GI50,MDA-MB-435,284 nM
same,TGI,MDA-MB-435,1180 nM
same,GI50,SK-OV-3 ovarian,207 nM
same,TGI,SK-OV-3 ovarian,973 nM
same,GI50,NCI-H226 lung,203 nM
same,TGI,NCI-H226 lung,828 nM
same,GI50,SK-MEL-2 melanoma,140 nM
same,TGI,SK-MEL-2 melanoma,758 nM
same,GI50,A498 renal,< 47.1 nM
same,TGI,A498 renal,398 nM
same,GI50,SR leukemia,192 nM
same,TGI,SR leukemia,1530 nM
same,GI50,SN12C renal,127 nM
same,TGI,SN12C renal,1140 nM
same,GI50,HOP-62 NSCLC,301 nM
same,TGI,HOP-62 NSCLC,1780 nM
same,GI50,SF-295 CNS,90.6 nM
same,TGI,SF-295 CNS,458 nM
same,GI50,HCT-116 colon,92.7 nM
same,TGI,HCT-116 colon,1250 nM
same,GI50,KM12 colon,98.7 nM
same,TGI,KM12 colon,758 nM
same,GI50,TK-10 renal,239 nM
same,TGI,TK-10 renal,1530 nM
same,GI50,HS 578T breast,302 nM
same,TGI,HS 578T breast,2200 nM
same,GI50,NCI-H522 lung,253 nM
same,TGI,NCI-H522 lung,978 nM
same,GI50,MCF7 breast,169 nM
same,TGI,MCF7 breast,1070 nM
same,GI50,OVCAR-3 ovarian,94.5 nM
same,TGI,OVCAR-3 ovarian,1280 nM
same,GI50,K-562 leukemia,45.1 nM
same,TGI,K-562 leukemia,> 100000 nM
same,GI50,CCRF-CEM leukemia,128 nM
same,TGI,CCRF-CEM leukemia,1660 nM
same,GI50,OVCAR-5 ovarian,321 nM
same,TGI,OVCAR-5 ovarian,1350 nM
same,GI50,U251 CNS,74.7 nM
same,TGI,U251 CNS,1460 nM
same,GI50,HCC-2998 colon,131 nM
same,TGI,HCC-2998 colon,1500 nM
same,GI50,NCI/ADR-RES ovarian,1300 nM
same,TGI,NCI/ADR-RES ovarian,2940 nM
same,GI50,OVCAR-8 ovarian,153 nM
same,TGI,OVCAR-8 ovarian,1540 nM
same,GI50,RPMI-8226 leukemia,32.6 nM
same,TGI,RPMI-8226 leukemia,295 nM
same,GI50,LOX IMVI melanoma,150 nM
same,TGI,LOX IMVI melanoma,496 nM
same,GI50,COLO 205 colon,76.5 nM
same,TGI,COLO 205 colon,228 nM
same,GI50,MDA-MB-231 breast,220 nM
same,TGI,MDA-MB-231 breast,1000 nM
same,GI50,NCI-H460 lung,154 nM
same,TGI,NCI-H460 lung,1140 nM
same,GI50,EKVX NSCLC,187 nM
same,TGI,EKVX NSCLC,1430 nM

# Reference: PubChem BioAssay (NCI)
